From patent US20230286995A1, “METABOLICALLY STABLE PYRIMIDINYL DIHYDROQUINOXALINONES AS TUBULIN POLYMERIZATION INHIBITORS” (UNIVERSITY OF TENNESSEE RESEARCH FOUNDATION, priority 2022, published 2023)
Read-outs that look alike come from different tables or passages of the source.

Experiments:
MDA-MB-231 = assay: Cytotoxicity assay (MTS, 72 h); assay type: cell-based; settings: Homo sapiens
MDA-MB-453 = assay: Cytotoxicity assay (MTS, 72 h); assay type: cell-based, human; settings: Homo sapiens, MDA-MB-453
Mia PaCa-2 = assay: Cytotoxicity assay (MTS, 72 h); assay type: cell-based; settings: Homo sapiens
PANC-1 = assay: Cytotoxicity assay (MTS, 72 h); assay type: cell-based; settings: Homo sapiens
Procedure: Mia PaCa-2 and PANC-1 cells were seeded in 96-well plates at 4000 and 5000 cells per well, respectively.
(§1) Cytotoxicity Assay. […] Each experiment consisted of four replicates.

PC3 = assay: Cytotoxicity assay (MTS, 72 h); assay type: cell-based; settings: Homo sapiens, PC-3; Table 6; read-out: IC50 (nM) Prostate cancer PC3
Text: as §1

PC3/TxR = assay: Cytotoxicity assay (MTS, 72 h); assay type: cell-based; settings: Homo sapiens, Table 6, paclitaxel-resistant, read-out: IC50 (nM) Prostate cancer PC3/TxR
Procedure: Biology. Cell culture and Reagents. […] MIA Paca-2 pancreatic cancer cells were cultured in media also supplemented with 2.5% horse serum. PANC-1 and PC-3 were cultured in RPMI 1640 medium (Gibco, Carlsbad, Calif.) supplemented with 10% FBS and 1% antibiotic/antimycotic mixture. […] For biological experiments, pyrimidine dihydroquinoxalinone derivatives were dissolved in DMSO to create 20 mM stock solutions and stored at −20° C. until use.
as §1

A375 = assay: Cytotoxicity assay (MTS, 72 h); settings: Homo sapiens;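 further: compounds tested from 0.1 nM up to 3 µM in four replicate wells, with absorbance read at 490 nm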
M14 = assay: Cytotoxicity assay (MTS, 72 h); settings: Homo sapiens
RPMI-7951 = assay: Cytotoxicity assay (MTS, 72 h); assay type: cell-based; settings: Homo sapiens, Table 1, read-out: IC50 (nM) Melanoma RPMI-7951
MDA-MB-468 = assay: Cytotoxicity assay (MTS, 72 h); assay type: cell-based, human; settings: Homo sapiens, MDA-MB-468; Table 1; read-out: IC50 (nM) Breast MDA-MB-468
logP = assay type: physicochemical; settings: Table 1; method not described
[1] = tested on: human melanoma and breast cancer cell lines; assay: Cytotoxicity, all tested cell lines of Table 1; assay type: cell-based; settings: melanoma and breast lines of Table 1
A375/TxR = assay: Cytotoxicity assay (MTS, 72 h); assay type: cell-based; settings: Homo sapiens, read-out: IC50 ± SEM (nM) A375/TxR
MDA-MB-231/VxR = assay: Cytotoxicity assay (MTS, 72 h); assay type: cell-based; settings: Homo sapiens, MDA-MB-231, read-out: IC50 ± SEM (nM) MDA-MB-231/VXR
[2] = tested on: melanoma, breast, pancreatic and prostate cancer cell lines; assay: Cytotoxicity of Example 8 compounds; assay type: cell-based, human
Text: as §1

in vitro [3] = settings: human, liver microsomes
in vitro [4] = settings: mouse, liver microsomes
[5] = MDA-MB-231, read-out: IC50 (nM) Breast Cancer MDA-MB-231, Table 6
[6] = Table 6, read-out: IC50 (nM) Breast Cancer MDA-MB-453
[7] = Table 6, read-out: IC50 (nM) Pancreatic cancer Mia PaCa-2
[8] = Table 6, read-out: IC50 (nM) Pancreatic cancer PANC-1
[9] = A-375, read-out: IC50 (nM) Melanoma Cancer A375, Table 6
[10] = M14, read-out: IC50 (nM) Melanoma Cancer M14
[11] = MDA-MB-231, read-out: IC50 (nM) Breast MDA-MB-231, Table 1
[12] = Table 1, read-out: IC50 (nM) Breast MDA-MB-453
[13] = A-375, read-out: IC50 (nM) Melanoma A375, Table 1
[14] = M14, read-out: IC50 (nM) Melanoma M14

For COc1ccc2c(c1)NC(=O)CN2c1nc(-n2ccnc2)nc2c1CCC2 [Compound 12h, 4-(2-(1H-imidazol-1-yl)-6,7-dihydro-5H-cyclopenta[d]pyrimidin-4-yl)-7-methoxy-3,4-dihydroquinoxalin-2(1H)-one], the IC50 (MDA-MB-231; [5]) was 8.4 ± 1.5 nM, the IC50 (MDA-MB-453; [6]) was 4.5 ± 1.2 nM and the IC50 (Mia PaCa-2; [7]) was 15.5 ± 2.5 nM. It also gave an IC50 (PANC-1; [8]) of 11.5 ± 2.3 nM, an IC50 (PC3) of 8.2 ± 1.4 nM and an IC50 (PC3/TxR) of 4.7 ± 0.7 nM. It also gave an IC50 (A375; [9]) of ~5.7 nM and an IC50 (M14; [10]) of 5.8 ± 1.2 nM.

Work on COc1ccc2c(c1)NC(=O)CN2c1nc(N=C=S)nc2c1CCC2 [Compound 12l, 4-(2-isothiocyanato-6,7-dihydro-5H-cyclopenta[d]pyrimidin-4-yl)-7-methoxy-3,4-dihydroquinoxalin-2(1H)-one] yielded an IC50 (MDA-MB-231; [5]) of 4.9 ± 0.8 nM, an IC50 (MDA-MB-453; [6]) of 2.9 ± 0.6 nM and an IC50 (Mia PaCa-2; [7]) of 7.3 ± 1.2 nM. It also gave an IC50 (PANC-1; [8]) of 10.7 ± 2.3 nM, an IC50 (PC3) of 6.3 ± 0.8 nM and an IC50 (PC3/TxR) of 4.8 ± 0.7 nM. The IC50 (A375; [9]) was ~3.3 nM and the IC50 (M14; [10]) was 2.6 ± 0.4 nM.

In the case of COc1ccc2c(c1)NC(=O)CN2c1nc(Cl)nc2c1CCC2 [Compound 5l, 4-(2-chloro-6,7-dihydro-5H-cyclopenta[d]pyrimidin-4-yl)-7-methoxy-3,4-dihydroquinoxalin-2(1H)-one], the IC50 (RPMI-7951) is reported as 6.8 ± 2.5 nM, the IC50 (MDA-MB-231; [11]) is reported as 25.7 ± 6.2 nM and the IC50 (MDA-MB-453; [12]) is reported as 3.7 ± 1.2 nM. The IC50 (MDA-MB-468) was 5.6 ± 2.2 nM, the logP (logP) was 2.74 and the IC50 ([1]; Homo sapiens, read-out: IC50 values, range over all tested cell lines) was 0.4 to 26 nM. The IC50 (A375; [13]) was 5.5 ± 0.7 nM and the IC50 (M14; [14]) was 5.9 ± 1.5 nM.

COc1ccc(N(C)c2nc(C)nc3ccccc23)cc1 [Verubulin, N-(4-methoxyphenyl)-N,2-dimethylquinazolin-4-amine, reference compound] showed an IC50 (MDA-MB-231; MDA-MB-231, read-out: IC50 ± SEM (nM) MDA-MB-231, Table 2) of 1.9 ± 0.4 nM, an IC50 (A375/TxR) of 0.7 ± 0.1 nM and an IC50 (MDA-MB-231/VxR) of 2 ± 0.4 nM. For the same compound, the IC50 (A375; A-375, read-out: IC50 ± SEM (nM) A375, Table 2) was 0.7 ± 0.1 nM and the IC50 (M14; M14, read-out: IC50 ± SEM (nM) M14) was 1 ± 0.1 nM.

With CNC(=O)C(=O)Nc1cc(OC)ccc1Nc1nc(SC)nc2c1CCC2 [Compound 21, N1-(5-methoxy-2-((2-(methylthio)-6,7-dihydro-5H-cyclopenta[d]pyrimidin-4-yl)amino)phenyl)-N2-methyloxalamide] the “cytotoxic potency” value [2] was “little to no cytotoxic activity”.

Compound COc1ccc2c(c1)NC(=O)CN2c1nc(N)nc2c1CCC2 [Compound 12c, 4-(2-amino-6,7-dihydro-5H-cyclopenta[d]pyrimidin-4-yl)-7-methoxy-3,4-dihydroquinoxalin-2(1H)-one] has an IC50 (MDA-MB-231; [5]) of 2.3 ± 0.5 nM, an IC50 (MDA-MB-453; [6]) of 1.4 ± 0.4 nM and an IC50 (Mia PaCa-2; [7]) of 5 ± 0.7 nM. For the same compound, the IC50 (PANC-1; [8]) was 5.5 ± 1 nM, the IC50 (PC3) was 3.8 ± 0.6 nM and the IC50 (PC3/TxR) was 2.3 ± 0.3 nM. The IC50 (A375; [9]) was ~2.01 nM and the IC50 (M14; [10]) was 1.7 ± 0.3 nM.

Compound COc1ccc2c(c1)NC(=O)CN2c1nc(NC2CC2)nc2c1CCC2 [Compound 12j, 4-(2-(cyclopropylamino)-6,7-dihydro-5H-cyclopenta[d]pyrimidin-4-yl)-7-methoxy-3,4-dihydroquinoxalin-2(1H)-one] has an IC50 (MDA-MB-231; [5]) of 2.2 ± 0.4 nM, an IC50 (MDA-MB-453; [6]) of 1.1 ± 0.3 nM and an IC50 (Mia PaCa-2; [7]) of 3.9 ± 0.6 nM. The IC50 (PANC-1; [8]) was 3.4 ± 0.6 nM, the IC50 (PC3) was 0.6 nM and the IC50 (PC3/TxR) was 0.2 nM. It also gave a half-life at 1 μg/mL (in vitro [3]) of 80.3 min, a microsomal CLint at 1 μg/mL (in vitro [3]) of 8.68 µL/min/mg and a half-life at 1 μg/mL (in vitro [4]) of 13.6 min. For the same compound, the microsomal CLint at 1 μg/mL (in vitro [4]) was 51 µL/min/mg, the IC50 (A375; [9]) was ~1.4 nM and the IC50 (M14; [10]) was 1.2 ± 0.3 nM.

In the case of COc1ccc2c(c1)NC(=O)CN2c1nc(Cl)nc(C)c1C [Compound 5q, 4-(2-chloro-5,6-dimethylpyrimidin-4-yl)-7-methoxy-3,4-dihydroquinoxalin-2(1H)-one], the IC50 (RPMI-7951) is reported as > 1000 nM, the IC50 (MDA-MB-231; [11]) is reported as > 1000 nM and the IC50 (MDA-MB-453; [12]) is reported as > 1000 nM. The IC50 (MDA-MB-468) was > 1000 nM, the logP (logP) was 2.76 and the “cytotoxic activity” value [1] was “inactive”. For the same compound, the IC50 (A375; [13]) was > 1000 nM and the IC50 (M14; [14]) was > 1000 nM.

For Cc1nc2c(c(N3CC(=O)Nc4cc(OCc5ccccc5)ccc43)n1)CCC2 [Compound 12p, 7-(benzyloxy)-4-(2-methyl-6,7-dihydro-5H-cyclopenta[d]pyrimidin-4-yl)-3,4-dihydroquinoxalin-2(1H)-one], the IC50 (MDA-MB-231; [5]) was 423 ± 110 nM, the IC50 (Mia PaCa-2; Table 6, cells printed in μM, read-out: IC50 Pancreatic cancer Mia PaCa-2) was > 1250 nM and the IC50 (PANC-1; Table 6, cells printed in μM, read-out: IC50 Pancreatic cancer PANC-1) was > 1200 nM. For the same compound, the “cytotoxic potency” value [2] was “least in potency”.
